For this test, the system named is Renal Cell Carcinoma patients. In words: Clinical efficacy of Bevacizumab treatment by body imaging (size reduction of the tumor). In kind it is in vivo, human. The method, then: A study is performed to generate kinase inhibition profiles from tumor tissues derived from Renal Cell Carcinoma patients treated with the drug Bevacizumab. The tissue is derived from tumor resection performed before the Bevacizumab treatment is started. Bevacizumab is an antibody that blocks the triggering of the Vascular Endothelial Growth Factor Receptors (VEGFR), and thereby blocks the VEGFR signal transduction pathways.
The activity of the targeted VEGFR or VEGFR pathway is assessed in lysates prepared from Bevacizumab responding and non-responding patients. Clinical efficacy is determined using body imaging, thereby monitoring the size reduction of the tumor. In this assessment the lysates are profiled for activities of kinases on a peptide microarray comprising peptide substrates for protein tyrosine kinases. […] It is shown that peptides that are inhibited by these VEGFR kinase inhibitors, thus reporting VEGFR activity, are found in the microarray analyses of the Bevacizumab responding patients, and are not inhibited in the analyses of the patients not responding to Bevacizumab (Table 1). […] As these inhibition profiles are generated from tumor tissue derived from the patients before the treatment is started, these inhibition profiles are predictive for the clinical response of these patients. In patients with an active VEGFR pathway this drug is clinically active. In patients with no active VEGFR pathway no clinical effects are provided.
A study is performed to generate kinase inhibition profiles from tumor tissues derived from Renal Cell Carcinoma patients treated with the drug Bevacizumab. The tissue is derived from tumor resection performed before Bevacizumab treatment is started. Bevacizumab is an antibody that blocks the triggering of the Vascular Endothelial Growth Factor Receptors (VEGFR), and thereby it blocks the VEGFR signal transduction pathways. In patients with an active VEGFR pathway this drug is expected to be clinically active.
The activity of the alternative pathway is assessed in lysates prepared from Bevacizumab responding and non-responding patients. Clinical efficacy is determined using body imaging, thereby monitoring the size reduction of the tumor. In this assessment the lysates are profiled for activities of kinases on a peptide microarray comprising peptide substrates for protein tyrosine kinases. These kinase activity profiling tests are performed both in the presence and absence of an IGFR kinase inhibitor. […] It is shown that peptides that are inhibited by this IGFR kinase inhibitor, thus reporting IGFR activity, are found in the analyses of the Bevacizumab responding patients, and are not inhibited in the analyses of the patients not responding to Bevacizumab (Table 2). […] As these inhibition profiles are generated from tumor tissue derived from the patients before the treatment is started, these inhibition profiles are predictive for clinical response. Therefore, in patients with no active VEGFR pathway or with an alternative pathway allowing the tumor growth independent of the VEGFR signalling pathway, no clinical effect is obtained.

Consider “Bevacizumab: antibody that blocks the triggering of the Vascular Endothelial Growth Factor Receptors (VEGFR); binds VEGF”, for which the Clinical response entry is, setting by setting: (Example 1, Patient 1, Renal Cell Carcinoma) “Responder”; (Example 1, Patient 2, Renal Cell Carcinoma) “Responder”; (Example 1, Patient 3, Renal Cell Carcinoma) “Non Responder”; (Example 1, Patient 4, Renal Cell Carcinoma) “Non Responder”; (Example 2, Patient 1, Renal Cell Carcinoma) “Responder”; (Example 2, Patient 2, Renal Cell Carcinoma) “Responder”. The Clinical response result is “Non Responder” (Example 2, Patient 3, Renal Cell Carcinoma) and “Non Responder” (Example 2, Patient 4, Renal Cell Carcinoma).

These data come from US20120021939A1, “METHOD FOR PROFILING DRUG COMPOUNDS USING PROTEIN KINASE INHIBITORS” (priority 2009, published 2012).
